# Results reported in patent publication US12605453B2, “CP2C-targeting peptide-based anticancer agent” (Industry-University Cooperation Foundation Hanyang …, priority 2019, dated 2026).
# *1 amine or outer side, *2 acyl side, *3 side chain or, on linkers, in order; H or OH if unused. Where a SMILES comes first, the peptide text is derived from it. Bridges are numbered along the chain shown (N, C = ends). Roman numbers before positions name the chains, in order. Side-chain parts run from the residue outwards. The star is where a group is joined. γGlu = O=C(O)[C@H](CCC(=O)[*:2])N[*:1]; Palmitoyl = CCCCCCCCCCCCCCCC(=O)*
# Assays:
# Hep3B xenograft mice = format: in vivo
# Description: To analyze the anticancer efficacy of the CP2c target peptide-fatty acid conjugates synthesized in Preparation Example 2 in animal models, ACP52CG and ACP52CK were injected into the Hep3B xenograft mice via tail vein 5 times at 3-day intervals.
# ACP52CGK was injected into the Hep3B xenograft mice via tail vein at 3 different concentrations (1.39, 2.77, or 5.54 mg/kg) 5 times at 3-day intervals. The tumor volume was measured at every three days after drug injection. The tumor and major tissues were excised from the mice sacrificed on the 24th day after the tumor cell injection. The tumor was weighed and fixed with 4% formaldehyde together with major organs. After making tissue slides through paraffin sections, hematoxylin/eosin staining was performed. The collected blood samples were subjected to basic CBC analysis using a Coulter LH 750 hematology analyzer. The acquired data were statistically processed using an Excel program.
# ACP52CGK was injected into Hep3B xenograft mice via tail vein 5 times at intervals of 5 days at 3 different concentrations (1.39, 2.77, 5.54 mg/kg), and the anticancer effect was evaluated in the same manner as described above. […] As a result of a comprehensive analysis of all the results, 2.77 mg/kg was the optimal concentration.
# [1] = test system: MDA-MB-231 (LM1) xenograft mice; format: in vivo; settings: for anticancer effect: tail vein 5 times at 3-day intervals
# Description: The anticancer effect of ACP52CGK was analyzed in MDA-MB-231 (LM1) xenograft mice in the same manner as in the Hep3B xenograft mouse model experiments.
# [2] = test system: various cancer cell lines; assay: In vitro anticancer effect of C16 fatty acid-binding peptides in various cancer cells; format: cell-based; settings: for GI50 values compared with control (ACP52C): 48 hours after treatment; for cancer cell-specific cell death: compared with control ACP52C
# Description: The anticancer effect of the CP2c-targeting peptide-fatty acid conjugate synthesized in Preparation Example 2 was analyzed in various cancer cells.
# [3] = ELISA for antibody formation in sera of injected rabbits (immunogenicity); settings: rabbit, in vivo
# Text: To verify this, immunogenicity of ACP52CG and ACP52CK was directly tested in the process of deriving the final new drug candidate. Since the final candidate material might be a C-16 palmitoyl acid-conjugated ACP52C peptide, which is not different with ACP52CG and ACP52CK in terms of chemical composition, it was decided to analyze whether antibodies were formed on ACP52CG and ACP52CK. […] Therefore, it was concluded that the final candidate material (ACP52CGK) would also not show immunogenicity in the human body (FIG. 21).
# [4] = test system: cells primary cultured from PDX (patient derived xenograft) tumor tissue; assay: Efficacy in cells primary cultured from PDX tumor tissue; format: cell-based
# normal cell line = assay: Cell growth analysis in normal cell line; format: cell-based
# Text: FIGS. 10a to 10g illustrate cell growth analysis results dependent upon treatment with ACP52CGK (=γC16-ACP52 cm) in normal cell lines (BEAS2B and hMSC) and cancer cell lines (Hep3B, Hs746T, Caov-3, MDA-MB-231, U343, HCT116, PANC1, PC3, A549, and THP-1).
# [5] = Repeated toxicity test of ACP52CGK, 28 days, female and male mice; format: in vivo, mouse; settings: 100 mg/kg
# Description: A repeated toxicity test for the in vivo administration of ACP52CGK was conducted using female and male mice. […] As a full-scale experiment, after intravenous infusion of ACP52CGK for 28 days at 3-day intervals into the solvent group and high-dose group (100 mg/Kg) of 6 males and females each, the weight change, drinking water intake, and main histological analysis of organs, organ weight, hematological tests and blood biochemical tests were analyzed.
# [6] = In vivo half-life by live imaging of Cy5-labeled peptide fluorescence in the mouse body; settings: whole body (mouse body, live imaging), intravenous
# Description: To analyze the in vivo half-life of ACP52CGK, Cy5-labeled ACP52CGK was injected into the tail vein of the mouse, and then the fluorescence intensity remaining in the mouse body was measured over time by live imaging process.
# [7] = test system: liver cancer induced by DEN treatment; assay: Liver cancer mouse model induced by DEN treatment; format: in vivo; settings: for efficacy: mice 15 weeks after DEN treatment
# Description: In addition, […] (7 to 8 mice/group), such as a control group (mock) treated with only a vehicle, a sorafenib group (an approved drug for liver cancer treatment), and an ACP52CG-GFLGE (SEQ ID NO: 16) (ACP52CK) group. The drug was injected through the tail vein a total of 12 times at a concentration of 5 mg/kg at 3-day intervals.
# caspase2 = assay: Immunoblot of MDM2p90 and MDM2p60 after caspase2 inhibitor treatment; format: cell-based; settings: lung cancer cells
# Description: Meanwhile, when a caspase2 inhibitor (AC-VDVAD (SEQ ID NO: 11)-CHO) was treated to identify a phenomenon that occurs due to the high activity of caspase2 specifically in lung cancer cells, it was found by immunoblot that the protein amount of MDM2p90 increased, while the protein amount of MDM2p60 decreased according to the treatment with the Caspase2 inhibitor. Therefore, we concluded that the MDM2p60 form, which is overexpressed in lung cancer cells, is the result of cleavage of MDM2p90 by caspase2. […] As a result, efficacy was observed around GI50˜1 μM in the group treated with the combination of the caspase 2 inhibitor and ACP52C (FIGS. 34a to 34d, FIG. 35).
# [8] = tail vein 5 times at 3-day intervals
compound,measurement,setting,value
CCCCCCCCCCCCCCCC(=O)N[C@@H](CCC(=O)NCCCC[C@H](NC(=O)CNC(=O)CNC(=O)[C@@H]1CCCN1C(=O)[C@H](CCCNC(=N)N)NC(=O)[C@H](CCC(N)=O)NC(=O)[C@@H]1CCCN1C(=O)[C@H](Cc1ccc(O)cc1)NC(=O)[C@H](CC(N)=O)NC(C)=O)C(=O)NCC(=O)NCC(=O)N[C@@H](CS)C(=O)N[C@@H](CCCNC(=N)N)C(=O)NCC(=O)N[C@@H](CC(=O)O)C(=O)N[C@@H](CCCCN)C(=O)NCC(=O)N1CCC[C@H]1C(=O)N[C@@H](CC(=O)O)C(=O)N[C@@H](CS)C(N)=O)C(=O)O [ACP52CGK] (Ac-NYPQRPGGK([γGlu-Palmitoyl])GGCRGDKGPDC-NH2),tumor inhibition and metastasis inhibition effects,"Hep3B xenograft mice; 1.39, 2.77, 5.54 mg/kg, tail vein 5 times at intervals of 5 days",tumor inhibition and metastasis inhibition effects superior to the sorafenib and ACP52C treatment groups
same,tumor metastasis inhibition effect (tumor area metastasized to the lung),"Hep3B xenograft mice; 1.39, 2.77, or 5.54 mg/kg, 5 times at 3-day intervals",superior to ACP52C in the tumor metastasis inhibition effect
same,tumor suppressive effect,"Hep3B xenograft mice; 1.39, 2.77, or 5.54 mg/kg, tail vein 5 times at 3-day intervals",tumor suppressive effect similar to that of ACP52C
same,optimal concentration,Hep3B xenograft mice; comprehensive analysis of 3-day and 5-day interval results,2.77 mg/kg
same,tumor suppression and metastasis inhibition effects,"[1]; 1.39, 2.77, or 5.54 mg/kg, 3-day and 5-day intervals",superior to those of the sorafenib and ACP52C-treated groups
same,optimal concentration,"[1]; mouse, in vivo",2.77 mg/kg
same,GI50 values compared with control (ACP52C),[2],like or more efficient than that of the control
same,cancer cell-specific cell death,[2],induced cancer cell-specific cell death similarly to the control group
same,immune response of sera from rabbits injected with ACP52CG and ACP52CK three times (ELISA),[3],did not induce immune responses
same,sensitivity across PDX generations,"[4]; cells derived from the same origin, each generation",not significantly different
same,resistance,[4]; primarily cultured cells from some PDX tumor tissues,showed resistance
same,effect on normal cells,normal cell line,no significant effect on normal cells
same,"Relative organ weight, Kidney",[5]; female mice,1.34 ± 0.06%
same,"Relative organ weight, Kidney",[5]; male mice,1.50 ± 0.08%
same,"Absolute organ weight, Epididymis","[5]; mouse, in vivo",0.0482 ± 0.0127 g
same,"Absolute organ weight, Ovary","[5]; mouse, in vivo",0.0059 ± 0.0012 g
same,"Absolute organ weight, Testis","[5]; mouse, in vivo",0.1693 ± 0.0169 g
same,"Absolute organ weight, Uterus","[5]; mouse, in vivo",0.0638 ± 0.0227 g
same,"Relative organ weight, Epididymis","[5]; mouse, in vivo",0.24 ± 0.07%
same,"Relative organ weight, Ovary","[5]; mouse, in vivo",0.0326 ± 0.0054%
same,"Relative organ weight, Testis","[5]; mouse, in vivo",0.83 ± 0.08%
same,"Relative organ weight, Uterus","[5]; mouse, in vivo",0.35 ± 0.12%
same,half-life,[6],~20.2 h
CCCCCCCCCCCCCCCC(=O)N[C@@H](CCC(=O)O)C(=O)NCCCC[C@H](NC(C)=O)C(=O)NCC(=O)NCC(=O)N[C@@H](CC(N)=O)C(=O)N[C@@H](Cc1ccc(O)cc1)C(=O)N1CCC[C@H]1C(=O)N[C@@H](CCC(N)=O)C(=O)N[C@@H](CCCNC(=N)N)C(=O)N1CCC[C@H]1C(=O)N[C@@H](CS)C(=O)N[C@@H](CCCNC(=N)N)C(=O)NCC(=O)N[C@@H](CC(=O)O)C(=O)N[C@@H](CCCCN)C(=O)NCC(=O)N1CCC[C@H]1C(=O)N[C@@H](CC(=O)O)C(=O)N[C@@H](CS)C(N)=O [ACP52CG] (Ac-K([Glu-Palmitoyl])GGNYPQRPCRGDKGPDC-NH2),anticancer efficacy,Hep3B xenograft mice; [8],"showed similar efficacy to sorafenib, but their efficacy was inferior to that of ACP52C"
same,anticancer effect,[1],"showed tumor regression efficacy, but the anticancer effect was not significant"
same,GI50 values compared with control (ACP52C),[2],like or more efficient than that of the control
same,cancer cell-specific cell death,[2],induced cancer cell-specific cell death similarly to the control group
same,immune response of sera from rabbits injected with ACP52CG and ACP52CK three times (ELISA),[3],did not induce immune responses
same,efficacy,[7],"superior to another control, FQI1, but did not show any superior efficacy compared to ACP52C"
CCCCCCCCCCCCCCCC(=O)NCC(=O)N[C@@H](Cc1ccccc1)C(=O)N[C@@H](CC(C)C)C(=O)NCC(=O)N[C@@H](CCC(=O)O)C(=O)NCCCC[C@H](NC(C)=O)C(=O)NCC(=O)NCC(=O)N[C@@H](CC(N)=O)C(=O)N[C@@H](Cc1ccc(O)cc1)C(=O)N1CCC[C@H]1C(=O)N[C@@H](CCC(N)=O)C(=O)N[C@@H](CCCNC(=N)N)C(=O)N1CCC[C@H]1C(=O)N[C@@H](CS)C(=O)N[C@@H](CCCNC(=N)N)C(=O)NCC(=O)N[C@@H](CC(=O)O)C(=O)N[C@@H](CCCCN)C(=O)NCC(=O)N1CCC[C@H]1C(=O)N[C@@H](CC(=O)O)C(=O)N[C@@H](CS)C(N)=O [ACP52CK] (I: Ac-KGGNYPQRPCRGDKGPDC-NH2 / II: Palmitoyl-GFLGE; amide I:1-II:C),anticancer efficacy,Hep3B xenograft mice; [8],"showed similar efficacy to sorafenib, but their efficacy was inferior to that of ACP52C"
same,anticancer effect,[1],"showed tumor regression efficacy, but the anticancer effect was not significant"
same,GI50 values compared with control (ACP52C),[2],like or more efficient than that of the control
same,cancer cell-specific cell death,[2],induced cancer cell-specific cell death similarly to the control group
same,immune response of sera from rabbits injected with ACP52CG and ACP52CK three times (ELISA),[3],did not induce immune responses
same,efficacy,[7],"superior to another control, FQI1, but did not show any superior efficacy compared to ACP52C"
"CNC(=O)c1cc(Oc2ccc(NC(=O)Nc3ccc(Cl)c(C(F)(F)F)c3)cc2)ccn1 [sorafenib, reference compound]",anticancer effect compared to the control group,"[7]; mice 22 weeks after DEN treatment, 5 mg/kg tail vein 12 times at 3-day intervals",significant anticancer effect (p=0.04)
AC-VDVAD (SEQ ID NO: 11)-CHO (Ac-VDVAD-aldehyde) [caspase2 inhibitor],protein amount of MDM2p60,caspase2,decreased
same,protein amount of MDM2p90,caspase2,increased
